Assay results as given in patent publication US6476012B2, “Estradiol-16α-carboxylic acid esters as locally active estrogens” (Yale University, priority 2001, dated 2002).
Values joined by “and” are separate entries in the source; they are usually repeats but may differ in a detail not shown here. Equal values may be shown once. Where a name gives a salt, the structure may show the parent alone. One block for each molecule: values may come before it.

Assays:
[1] = test system: alkaline phosphatase (AlkP) induction in Ishikawa cells; assay: Estrogenic potency in Ishikawa cells: induction of AlkP; format: cell-based, human; settings: for Ishikawa Cell AlkP RSA (relative stimulatory activity): induction of AlkP, E2 = 100, ± S.D.
Experimental: Estrogenic Potency in Ishikawa Cells. The estrogenic potency of the E2-analogs was determined in a estrogen bioassay, the induction of AlkP in human endometrial adenocarcinoma cells (Ishikawa) grown in 96-well microtiter plates as we have previously described.^28 In short, the cells are grown in phenol red free medium with estrogen depleted (charcoal stripped) bovine serum in the presence or absence of varying amounts of the steroids. […] After 3 days, the cells are washed, frozen and thawed, and then incubated with 5 mM p-nitrophenyl phosphate, a chromogenic substrate for the AlkP enzyme, at pH 9.8. To ensure linear enzymatic analysis, the plates are monitored kinetically for the for the production of p-nitrophenol at 405 nm. The relative stimulatory activity is determined by analysis of the curve fitting program Prism. Each compound was analyzed in at least 3 separate experiments performed in duplicate.

[2] = target: T1, ER in rat uterine cytosol (ERα) (Rattus norvegicus, UniProt P06211); assay: Competitive binding to the ER in rat uterine cytosol (RBA vs [3H]E2); settings: for ER RBA (relative binding affinity): rat uterine estrogen receptor assay, E2 = 100, ± S.D.; for binding to the ER / RBA: uterine cytosol (ERα); for RBA: relative to E2
T1 construct: The uterus was removed and homogenized in ice-cold TEGDMo buffer; from tissue; host or cells: uterine cytosol of castrated female Sprague Dawley rats
T1 sequence (P06211 1-600): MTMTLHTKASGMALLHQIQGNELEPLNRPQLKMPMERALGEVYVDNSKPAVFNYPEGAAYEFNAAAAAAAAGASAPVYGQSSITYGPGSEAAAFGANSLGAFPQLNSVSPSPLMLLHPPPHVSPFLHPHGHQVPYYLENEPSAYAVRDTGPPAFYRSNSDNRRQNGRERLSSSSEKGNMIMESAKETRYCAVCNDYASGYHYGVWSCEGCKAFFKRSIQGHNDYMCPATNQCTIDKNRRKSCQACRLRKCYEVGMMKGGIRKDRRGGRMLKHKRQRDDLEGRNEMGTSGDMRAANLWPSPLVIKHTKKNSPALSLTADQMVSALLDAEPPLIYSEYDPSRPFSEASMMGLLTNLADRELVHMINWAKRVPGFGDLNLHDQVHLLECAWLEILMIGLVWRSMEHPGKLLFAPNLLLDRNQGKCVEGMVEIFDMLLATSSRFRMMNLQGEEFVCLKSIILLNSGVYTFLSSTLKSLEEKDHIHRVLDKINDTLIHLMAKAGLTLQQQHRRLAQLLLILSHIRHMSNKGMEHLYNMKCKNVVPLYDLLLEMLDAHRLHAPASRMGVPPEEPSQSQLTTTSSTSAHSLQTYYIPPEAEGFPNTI
Experimental: Competitive Binding to the Estrogen Receptor ERα and ERβ. […] The ER in uterine cytosol is ERα the classical form of the ER.^38 Female Sprague Dawley rats were castrated and sacrificed 24 h later. The uterus was removed and homogenized in ice-cold TEGDMo buffer (10 mM Tris, 1.5 mM Na2-EDTA, 10% (v/v) glycerol, 1.0 mM dithiothreitol, 25 mM sodium molybdate, pH 7.4 at 4° C.). and centrifuged at 105,000 g for 45 min at 4° C. The supernatant (cytosol) was frozen on dry ice and stored at −80° C. until assay. […] Incubations were carried out on ice overnight and bound radioactivity was separated from free by adsorption with dextran coated charcoal and quantified by counting.^26 Relative Binding Affinity (RBA) was determined by analysis of the displacement curves by the curve-fitting program Prism (Graph-Pad Software inc., San Diego, Calif.). The results shown in Table 1. below, are from at least 3 separate experiments performed in duplicate.

human ERβ and ERα = assay: Competitive binding to human ERβ and ERα expressed in Escherichia coli lysates (ratio of RBAs); settings: RBAs (E2 = 100) in E. coli lysates expressing human ERβ and ERα separately
[3] = test system: esterase(s) in rat hepatic microsomes; assay: Esterase assay with rat hepatic microsomes; format: in vitro ADME; settings: rat hepatic microsomes, E16-1,2 = 100; ± S.D.
Experimental: Esterase. Esterase activity was measured in rat hepatic microsomes essentially using the conditions described.^39 Liver obtained from Sprague-Dawley rats was washed with phosphate buffered saline and homogenized in 3 volumes of cold 0.25 M sucrose and centrifuged at 700 g for 10 min and then at 10,000 g for 20 min. The resulting supernatant was centrifuged at 105,000 g for 60 min. The pellet was suspended in 0.1 M phosphate buffer pH 7.4 and washed by centrifugation at 105,000 g for 60 min. The washed pellet was suspended in 0.1 M Tris-HCl pH 8.0 at a concentration of ˜13 mg protein/ml and frozen at −80° C. For assay, the pellets were thawed and diluted with the same buffer. The incubation mixture consisted of the microsomal enzyme preparation, 0.28 mg protein/ml, E2-16α-alkyl esters, 50 μM, added in 10 μL of ethanol, all in a final volume of 1 mL of Tris buffer pH 8.0. Since the rates of reaction are widely different for the various esters, the incubation times were varied accordingly to obtain linear kinetics. At several appropriate time points, 100 μL aliquots were withdrawn and the reaction was quenched with 33 μL CH3CN, followed by a 33 μL of a solution of THF containing 1 […] of the internal standard, 6-ketoestradiol. The quenched aliquot was centrifuged for several minutes on bench-top centrifuge and 80 μl of the supernatant was analyzed for the esterase-hydrolysis product (the corresponding E2-16α-carboxylic acid: E16-1,0 8; E16-2,0 23; E16-3,0 35) by reversed phase HPLC with system H-10 for E2-16-1 and E2-16-2 esters, and with system H-15 for E2-16-3 esters. The E2-16α-carboxyl products, (Rt for E16-1,0 8=7 min and for E16-2,0 23=9 min, E16-3,0 35=6.5 min) and the internal standard, 6-ketoestradiol (Rt 7.5 min in system H-10, and 5 min in system H-15) were quantified at 280 nm on the HPLC UV detector. The UV absorbance was converted to moles of product by comparison to standard curves and corrected for recovery of the internal standard, 6-ketoestradiol. The velocity of the reaction for each ester, in nmol product/min/ml/ was then normalized to the ester, E16-1,2 10 and is shown in Table 1 as relative hydrolytic activity (RHA). The enzymatic velocity for the hydrolysis of E16-1,2 10 was 0.9±0.2 (S.D.) nmol product/min/ml over the various experiments. Since all of the esters could not be tested simultaneously, in each case we compared the rate of hydrolysis of the test compound to that of E16-1,2 10 run concurrently. All compounds were tested in triplicate in 3 separate experiments.

Structure (SMILES): C[C@]12CC[C@@H]3c4ccc(O)cc4CC[C@H]3[C@@H]1CCC2=O [Compound E1, estrone, reference compound]
RSA (estrogenic potency compared to E2) ([1]; Ishikawa AlkP): 7%
Ishikawa Cell AlkP RSA (relative stimulatory activity) [1]: 7 ± 2

Structure (SMILES): C[C@]12CC[C@@H]3c4ccc(O)cc4CC[C@H]3[C@@H]1C[C@@H](C(=O)O)[C@@H]2O [E16-1,0, 3,17β-dihydroxyestra-1,3,5(10)-trien-16α-carboxylic acid]
ER RBA (relative binding affinity) [2]: 0
binding to the ER [2]: None of the parent carboxylic acid analogs, E16-1,0, E16-2,0 and E16-3,0 showed significant binding
Ishikawa Cell AlkP RSA (relative stimulatory activity) [1]: 0

Structure (SMILES): C[C@]12CC[C@@H]3c4ccc(O)cc4CC[C@H]3[C@@H]1C[C@@H](CC(=O)O)[C@@H]2O [E16-2,0, 3,17β-Dihydroxyestra-1,3,5(10)-trien-16α-yl acetic acid]
ER RBA (relative binding affinity) [2]: 0
binding to the ER [2]: None of the parent carboxylic acid analogs, E16-1,0, E16-2,0 and E16-3,0 showed significant binding
Ishikawa Cell AlkP RSA (relative stimulatory activity) [1]: 0

Structure (SMILES): COC(=O)C[C@@H]1C[C@H]2[C@@H]3CCc4cc(O)ccc4[C@H]3CC[C@]2(C)[C@H]1O [E16-2,1, Methyl 3,17β-dihydroxyestra-1,3,5(10)-trien-16α-yl acetate]
ER RBA (relative binding affinity) [2]: 5 ± 2
RBA [2]: 5%
Ishikawa Cell AlkP RSA (relative stimulatory activity) [1]: 0.5 ± 0.1
Esterase RHA (relative hydrolytic activity) [3]: 340 ± 30

Structure (SMILES): CCOC(=O)C[C@@H]1C[C@H]2[C@@H]3CCc4cc(O)ccc4[C@H]3CC[C@]2(C)[C@H]1O [E16-2,2, Ethyl (3,17β-dihydroxyestra-1,3,5(10)-trien-16α-yl) acetate]
ER RBA (relative binding affinity) [2]: 5 ± 1
RBA [2]: 5%
Ishikawa Cell AlkP RSA (relative stimulatory activity) [1]: 0.3 ± 0.1
Esterase RHA (relative hydrolytic activity) [3]: 700 ± 120

Structure (SMILES): C[C@]12CC[C@@H]3c4ccc(O)cc4CC[C@H]3[C@@H]1C[C@@H](CCC(=O)O)[C@@H]2O [E16-3,0, 3-(3,17β-dihydroxyestra-1,3,5(10)-trien-16α-yl)propanioc acid]
ER RBA (relative binding affinity) [2]: 0.1 ± 0.1
binding to the ER [2]: None of the parent carboxylic acid analogs, E16-1,0, E16-2,0 and E16-3,0 showed significant binding
Ishikawa Cell AlkP RSA (relative stimulatory activity) [1]: 0

Structure (SMILES): COC(=O)CC[C@@H]1C[C@H]2[C@@H]3CCc4cc(O)ccc4[C@H]3CC[C@]2(C)[C@H]1O [E16-3,1, Methyl 3-(3,17β-dihydroxyestra-1,3,5(10)-trien-16α-yl)propanoate]
ER RBA (relative binding affinity) [2]: 1 ± 1
RBA [2]: 1%
Ishikawa Cell AlkP RSA (relative stimulatory activity) [1]: 0
Esterase RHA (relative hydrolytic activity) [3]: 910 ± 100

Further lines, with some results ahead:

ER RBA (relative binding affinity) [2]: 10 ± 3
RBA [2]: 10%
Esterase RHA (relative hydrolytic activity) [3]: 2,350 ± 275
Structure (SMILES): C[C@]12CC[C@@H]3c4ccc(O)cc4CC[C@H]3[C@@H]1C[C@@H](C(=O)OCC(F)F)[C@@H]2O [E16-1,2F2, 2′,2′-Difluoroethyl (3,17β-dihydroxyestra-1,3,5(10)-trien-16α-yl) formate]
ERα/ERβ (ratio of the RBAs) (human ERβ and ERα): 1,800
Ishikawa Cell AlkP RSA (relative stimulatory activity) [1]: 4 ± 1

ER RBA (relative binding affinity) [2]: 7 ± 1
RBA [2]: 7%
Esterase RHA (relative hydrolytic activity) [3]: 8,200 ± 1,800
Structure (SMILES): C[C@]12CC[C@@H]3c4ccc(O)cc4CC[C@H]3[C@@H]1C[C@@H](C(=O)OCC(F)(F)F)[C@@H]2O [E16-1,2F3, 2′,2′,2′-Trifluoroethyl (3,17β-dihydroxyestra-1,3,5(10)-trien-16α-yl) formate]
Ishikawa Cell AlkP RSA (relative stimulatory activity) [1]: 3 ± 1

ER RBA (relative binding affinity) [2]: 34 ± 9
Esterase RHA (relative hydrolytic activity) [3]: 230 and 230 ± 50
Structure (SMILES): CCCOC(=O)[C@@H]1C[C@H]2[C@@H]3CCc4cc(O)ccc4[C@H]3CC[C@]2(C)[C@H]1O [E16-1,3, Propyl (3,17β-dihydroxyestra-1,3,5(10)-trien-16α-yl) formate]
Ishikawa Cell AlkP RSA (relative stimulatory activity) [1]: 2 ± 0

ER RBA (relative binding affinity) [2]: 7 ± 4
RBA [2]: 7%
Esterase RHA (relative hydrolytic activity) [3]: 140 and 140 ± 10
Structure (SMILES): CC(C)OC(=O)[C@@H]1C[C@H]2[C@@H]3CCc4cc(O)ccc4[C@H]3CC[C@]2(C)[C@H]1O [E16-1,3i, Isopropyl (3,17β-dihydroxyestra-1,3,5(10)-trien-16α-yl) formate]
Ishikawa Cell AlkP RSA (relative stimulatory activity) [1]: 0.1 ± 0.06

ER RBA (relative binding affinity) [2]: 28 ± 17
RBA [2]: 28%
Esterase RHA (relative hydrolytic activity) [3]: 350 ± 50
Structure (SMILES): CCCCOC(=O)[C@@H]1C[C@H]2[C@@H]3CCc4cc(O)ccc4[C@H]3CC[C@]2(C)[C@H]1O [E16-1,4, n-Butyl (3,17β-dihydroxyestra-1,3,5(10)-trien-16α-yl) formate]
Ishikawa Cell AlkP RSA (relative stimulatory activity) [1]: 1 ± 0

ER RBA (relative binding affinity) [2]: 14 ± 3
RBA [2]: 7%
Esterase RHA (relative hydrolytic activity) [3]: 50 and 50 ± 5
Structure (SMILES): CC(C)(C)COC(=O)[C@@H]1C[C@H]2[C@@H]3CCc4cc(O)ccc4[C@H]3CC[C@]2(C)[C@H]1O [E16-1,5neo]
Ishikawa Cell AlkP RSA (relative stimulatory activity) [1]: 1 ± 0.6
